Measurements taken from article PMC10232439, “Identification of photocrosslinking peptide ligands by mRNA display” (Communications Chemistry, 2023).
Where a SMILES comes first, the peptide text is derived from it. Bridges are numbered along the chain shown (N, C = ends). Where no end group is shown, it is not given here. [ ]: non-standard residue; d: D form. The star is where a group is joined. 5FAM = O=C1OC2(c3ccc(O)cc3Oc3cc(O)ccc32)c2ccc(C(=O)*)cc21; Bpa = N[C@@H](Cc1ccc(C(=O)c2ccccc2)cc1)C(=O)O

Experiments:
[1] = biological target: BRD3-BD1; conditions: tight binding peptide to its target protein BRD3-BD1; cited from earlier work
[2] = biological target: T1, BRD3-BD2 (Homo sapiens, UniProt Q15059); test: Photocrosslinking of BRD3-BD2, SDS-PAGE/Coomassie densitometry; type: biochemical; conditions: BRD3-BD2 20 µM, peptide 40 µM (two equivalents), 365 nm for 40 min, 0 °C; SDS-PAGE, Coomassie; mean of triplicate
T1 construct: BRD3-BD2 (306–421, Q15059); Avi tag (biotinylated in vivo; vector pQE80L-Navi); made in house; host or cells: Escherichia coli BL21(DE3)
Protocol: Fig. 3 Photocrosslinking of BRDs with pBpa-containing ligands. a Crosslinking between BRD3-BD2 (20 µM) and cyclic peptides (40 µM) after exposure to UV irradiation (365 nm) for variable amounts of time (0, 5, 10, 20, 40 min). Samples were separated on an SDS-PAGE gel and visualised by Coomassie staining. b Plot of percentage of cross-linked BRD3-BD2 calculated by densitometric analysis of protein bands from (a). Crosslinking efficiencies are represented as the mean of triplicate experiments ±1 standard deviation. c Crosslinking of BRD3-BD2/BRD2-BD2/BRD4-BD2/BRD3-BD1 (2 µM) by cyclic peptides (20 µM) after exposure to UV irradiation for 30 min. Samples were analysed and processed as described in (a, b). […]
(§1) S7. Direct fluorescence anisotropy assay […]
(§2) After 30 min, fluorescence anisotropy was measured with a CLARIOstar plate reader (BMG Labtech) using excitation at 482 nm and emissions at 530 nm at 25 °C. […] KD values were calculated using GraphPad Prism and a curve fitted using a one site - total fitting model. […]
(§3) Irradiated samples were analysed by SDS-PAGE on 4–20% Bis-Tris gels (mPAGE, Millipore).
(§4) Experiments with Bpa-P1 and Bpa-P2 were visualised by Quick Coomassie staining (Neo Biotech) with gels imaged on a Chemidoc MP Imaging System (Biorad) and quantified by Fiji. Experiments with Bpa-P1-FAM and Bpa-P2-FAM were visualised by in gel fluorescence imaging using a Typhoon FLA 9500 […]

[3] = biological target: T1, BRD3-BD2; test: Direct fluorescence anisotropy binding assay; conditions: direct fluorescence anisotropy with FAM-labelled peptide (100 nM final), 12-point 2-fold dilution of BRD3-BD2, 30 min rt, read at 25 °C; mean of at least three replicates ± SD
Protocol: Binding affinities for the two fluorescently tagged peptides were then determined using a direct fluorescence anisotropy assay (Fig. 2d and Supplementary Fig. S6). […] Having established that our peptides were able to bind to BRD3-BD2, we next assessed the crosslinking efficiency of the unlabelled variants. We were pleased to find that both peptides efficiently cross-linked to BRD3-BD2 upon exposure to UV light. After incubation with two equivalents of peptide and irradiation at 365 nm for only 5 min, we observed around 40% protein modification as analysed by sample separation on an SDS-PAGE gel and Coomassie staining. […]
as §1, §2, §3, §4
Irradiated samples with BRD3-BD2 were further analysed by LCMS. […]

[4] = biological target: T2, second bromodomain of BRD3 (BRD3-BD2), biotinylated (human (from the printed accession), UniProt Q15059 306-421, biotin (biotinylated; cultures induced with IPTG and 100 µM biotin)); test: SPR; peptide 3.2B on BRD3-BD2 cross-linked to Bpa-P1 or Bpa-P2; mean ± standard deviation of the mean; conditions: both partners purified
T2 construct: BRD3, second bromodomain, residues 306-421 of Q15059; also called wild-type BRD3-BD2; source: E. coli BL21(DE3), purified (HisTrap, Superdex 75)
T2 sequence (Q15059 306-421): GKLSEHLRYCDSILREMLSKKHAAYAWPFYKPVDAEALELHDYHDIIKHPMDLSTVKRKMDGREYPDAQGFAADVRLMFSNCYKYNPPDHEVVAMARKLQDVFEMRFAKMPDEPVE

T1 sequence (Q15059 306-421): as above

Row | Molecule | protein modification (cross-linked BRD3-BD2) [2] [%] | Kd [3] [µM] | other results
1 | cyclic-WKTIKGKTWRTKQC(S-) (sidechain bridge or staple) [3.1B, previously identified non-covalent cyclic peptide ligand of the first bromodomain of BRD3, BRD3-BD1] | – | – | Kd [1]: 0.00049 µM
2 | CC[C@H](C)[C@@H]1NC(=O)[C@H](Cc2ccccc2)NC(=O)[C@H](Cc2ccc(C(=O)c3ccccc3)cc2)NC(=O)[C@H]([C@@H](C)O)NC(=O)[C@H](CC(=O)O)NC(=O)CNC(=O)[C@H](CCCCN)NC(=O)[C@H](C)NC(=O)[C@H](CC(N)=O)NC(=O)[C@H](CC(C)C)NC(=O)[C@@H](Cc2ccc(O)cc2)NC(=O)CSC[C@@H](C(=O)NCC(N)=O)NC(=O)[C@H](Cc2ccc(O)cc2)NC(=O)[C@H]([C@@H](C)CC)NC1=O [Bpa-P2] ({CH2CO}-[dY]LNAKGDT[Bpa]FIIYCG-NH2; thioether N-14) | 78 | – | –
3 | CC(C)C[C@@H]1NC(=O)[C@H](Cc2ccc(O)cc2)NC(=O)[C@H](Cc2ccc(C(=O)c3ccccc3)cc2)NC(=O)[C@H](CC(=O)O)NC(=O)[C@H](CC(=O)O)NC(=O)[C@H](CC(N)=O)NC(=O)[C@H](C(C)C)NC(=O)[C@H](CO)NC(=O)[C@H](CC(N)=O)NC(=O)[C@H](CC(C)C)NC(=O)[C@@H](Cc2ccc(O)cc2)NC(=O)CSC[C@@H](C(=O)NCC(N)=O)NC(=O)[C@H](Cc2ccc(O)cc2)NC(=O)[C@H](C)NC1=O [Bpa-P1] ({CH2CO}-[dY]LNSVNDD[Bpa]YLAYCG-NH2; thioether N-14) | 96 | – | –
4 | CC(C)C[C@@H]1NC(=O)[C@H](Cc2ccc(O)cc2)NC(=O)[C@H](Cc2ccc(C(=O)c3ccccc3)cc2)NC(=O)[C@H](CC(=O)O)NC(=O)[C@H](CC(=O)O)NC(=O)[C@H](CC(N)=O)NC(=O)[C@H](C(C)C)NC(=O)[C@H](CO)NC(=O)[C@H](CC(N)=O)NC(=O)[C@H](CC(C)C)NC(=O)[C@@H](Cc2ccc(O)cc2)NC(=O)CSC[C@@H](C(=O)NCC(=O)N[C@@H](CCCCNC(=O)c2ccc3c(c2)C(=O)OC32c3ccc(O)cc3Oc3cc(O)ccc32)C(N)=O)NC(=O)[C@H](Cc2ccc(O)cc2)NC(=O)[C@H](C)NC1=O [Bpa-P1-FAM] ({CH2CO}-[dY]LNSVNDD[Bpa]YLAYCGK(5FAM)-NH2; thioether N-14) | – | 29 ± 10 | –
5 | CC[C@H](C)[C@@H]1NC(=O)[C@H](Cc2ccccc2)NC(=O)[C@H](Cc2ccc(C(=O)c3ccccc3)cc2)NC(=O)[C@H]([C@@H](C)O)NC(=O)[C@H](CC(=O)O)NC(=O)CNC(=O)[C@H](CCCCN)NC(=O)[C@H](C)NC(=O)[C@H](CC(N)=O)NC(=O)[C@H](CC(C)C)NC(=O)[C@@H](Cc2ccc(O)cc2)NC(=O)CSC[C@@H](C(=O)NCC(=O)N[C@@H](CCCCNC(=O)c2ccc3c(c2)C(=O)OC32c3ccc(O)cc3Oc3cc(O)ccc32)C(N)=O)NC(=O)[C@H](Cc2ccc(O)cc2)NC(=O)[C@H]([C@@H](C)CC)NC1=O [Bpa-P2-FAM] ({CH2CO}-[dY]LNAKGDT[Bpa]FIIYCGK(5FAM)-NH2; thioether N-14) | – | 14 ± 1 | –
6 | WSWLCKK(Ac)YNLIH (thioether (positions not given here); not fully specified (bridges); also: cyclic through C5 sulfur, other ring end not given here, bridge at 5, other end not in the chain, Printed as cyclic-WSWLC(S-)KKYNLIH with the second K underlined (acetylated)) [peptide 3.2B] | – | – | binding result [4]: binds
